Legend:
Format in all cases: in vivo
Annual bluegrass [1] = assay: Pre-emergence herbicide test; details: read-out: % plant inhibition (Anbg); for inhibition at 1120 g/ha: 1.12 kg/ha; for inhibition at 11210 g/ha: 11.21 kg/ha
How it was run: (§1)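 Values are percent inhibition assessed about 10-14 days (usually 11) after a known amount of test compound, carried in acetone or water, was applied to seeds on compacted topsoil and covered with untreated soil, with greenhouse sub-irrigation.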

Barnyardgrass [2] = assay: Pre-emergence herbicide test; details: Echinochloa crus-galli, read-out: % plant inhibition (Bygr); for inhibition at 1120 g/ha: 1.12 kg/ha; for inhibition at 11210 g/ha: 11.21 kg/ha
How it was run: as §1

Cocklebur [3] = assay: Pre-emergence herbicide test; details: Xanthium strumarium, read-out: % plant inhibition (Cobu); for inhibition at 1120 g/ha: 1.12 kg/ha; for inhibition at 11210 g/ha: 11.21 kg/ha
How it was run: as §1

Downy Brome [4] = assay: Pre-emergence herbicide test; details: Bromus tectorum, read-out: % plant inhibition (Dobr); for inhibition at 1120 g/ha: 1.12 kg/ha; for inhibition at 11210 g/ha: 11.21 kg/ha
How it was run: as §1

Indian Mustard [5] = assay: Pre-emergence herbicide test; details: Brassica juncea, read-out: % plant inhibition (Inmu); for inhibition at 1120 g/ha: 1.12 kg/ha; for inhibition at 11210 g/ha: 11.21 kg/ha
How it was run: as §1

Morningglory [6] = assay: Pre-emergence herbicide test; details: Ipomoea, read-out: % plant inhibition (Mogl); for inhibition at 1120 g/ha: 1.12 kg/ha; for inhibition at 11210 g/ha: 11.21 kg/ha
How it was run: as §1

Seedling johnsongrass [7] = assay: Pre-emergence herbicide test; details: Sorghum halepense, read-out: % plant inhibition (Sejg); for inhibition at 1120 g/ha: 1.12 kg/ha; for inhibition at 11210 g/ha: 11.21 kg/ha
How it was run: as §1

Velvetleaf [8] = assay: Pre-emergence herbicide test; details: Abutilon theophrasti, read-out: % plant inhibition (Vele); for inhibition at 1120 g/ha: 1.12 kg/ha; for inhibition at 11210 g/ha: 11.21 kg/ha
How it was run: as §1

Wild buckwheat [9] = assay: Pre-emergence herbicide test; details: Fallopia convolvulus, read-out: % plant inhibition (Wibw); for inhibition at 1120 g/ha: 1.12 kg/ha; for inhibition at 11210 g/ha: 11.21 kg/ha
How it was run: as §1

Yellow nutsedge [10] = assay: Pre-emergence herbicide test; details: Cyperus, read-out: % plant inhibition (Yens); for inhibition at 1120 g/ha: 1.12 kg/ha; for inhibition at 11210 g/ha: 11.21 kg/ha
How it was run: as §1

Annual bluegrass [11] = assay: Post-emergence herbicide test; details: read-out: % plant inhibition (Anbg); for inhibition at 1120 g/ha: 1.12 kg/ha; for inhibition at 11210 g/ha: 11.21 kg/ha
How it was run: (§2)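 Rating of injury as % inhibition against control took place at ~11 days (10–14), and sometimes at ~25 days (24–28), following atomizer application (170.3 kPa, 1870 L/Ha, ~0.4% v/v emulsifier) to greenhouse plants aged 2–3 weeks.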

Barnyardgrass [12] = assay: Post-emergence herbicide test; details: Echinochloa crus-galli, read-out: % plant inhibition (Bygr); for inhibition at 1120 g/ha: 1.12 kg/ha; for inhibition at 11210 g/ha: 11.21 kg/ha
How it was run: as §2

Cocklebur [13] = assay: Post-emergence herbicide test; details: Xanthium strumarium, read-out: % plant inhibition (Cobu); for inhibition at 1120 g/ha: 1.12 kg/ha; for inhibition at 11210 g/ha: 11.21 kg/ha
How it was run: as §2

Downy Brome [14] = assay: Post-emergence herbicide test; details: Bromus tectorum, read-out: % plant inhibition (Dobr); for inhibition at 1120 g/ha: 1.12 kg/ha; for inhibition at 11210 g/ha: 11.21 kg/ha
How it was run: as §2

Indian Mustard [15] = assay: Post-emergence herbicide test; details: Brassica juncea, read-out: % plant inhibition (Inmu); for inhibition at 1120 g/ha: 1.12 kg/ha; for inhibition at 11210 g/ha: 11.21 kg/ha
How it was run: as §2

Morningglory [16] = assay: Post-emergence herbicide test; details: Ipomoea, read-out: % plant inhibition (Mogl); for inhibition at 1120 g/ha: 1.12 kg/ha; for inhibition at 11210 g/ha: 11.21 kg/ha
How it was run: as §2

Seedling johnsongrass [17] = assay: Post-emergence herbicide test; details: Sorghum halepense, read-out: % plant inhibition (Sejg); for inhibition at 1120 g/ha: 1.12 kg/ha; for inhibition at 11210 g/ha: 11.21 kg/ha
How it was run: as §2

Velvetleaf [18] = assay: Post-emergence herbicide test; details: Abutilon theophrasti, read-out: % plant inhibition (Vele); for inhibition at 1120 g/ha: 1.12 kg/ha; for inhibition at 11210 g/ha: 11.21 kg/ha
How it was run: as §2

Wild buckwheat [19] = assay: Post-emergence herbicide test; details: Fallopia convolvulus, read-out: % plant inhibition (Wibw); for inhibition at 1120 g/ha: 1.12 kg/ha; for inhibition at 11210 g/ha: 11.21 kg/ha
How it was run: as §2

Yellow nutsedge [20] = assay: Post-emergence herbicide test; details: Cyperus, read-out: % plant inhibition (Yens); for inhibition at 1120 g/ha: 1.12 kg/ha; for inhibition at 11210 g/ha: 11.21 kg/ha
How it was run: as §2

[21] = system: resistant broadleaf weeds such as pigweed, cocklebur, velvetleaf and hemp sesbania; assay: Control of resistant broadleaf weeds in crops; details: in various crops such as corn, soybean and nuts and in forestry

| Compound | inhibition at 1120 g/ha (Annual bluegrass [1]) | inhibition at 1120 g/ha (Barnyardgrass [2]) | inhibition at 1120 g/ha (Cocklebur [3]) | inhibition at 1120 g/ha (Downy Brome [4]) | inhibition at 1120 g/ha (Indian Mustard [5]) | inhibition at 1120 g/ha (Morningglory [6]) | inhibition at 1120 g/ha (Seedling johnsongrass [7]) | inhibition at 1120 g/ha (Velvetleaf [8]) | inhibition at 1120 g/ha (Wild buckwheat [9]) | inhibition at 1120 g/ha (Yellow nutsedge [10]) | inhibition at 1120 g/ha (Annual bluegrass [11]) | inhibition at 1120 g/ha (Barnyardgrass [12]) | inhibition at 1120 g/ha (Cocklebur [13]) | inhibition at 1120 g/ha (Downy Brome [14]) | inhibition at 1120 g/ha (Indian Mustard [15]) | inhibition at 1120 g/ha (Morningglory [16]) | inhibition at 1120 g/ha (Seedling johnsongrass [17]) | inhibition at 1120 g/ha (Velvetleaf [18]) | inhibition at 1120 g/ha (Wild buckwheat [19]) | inhibition at 1120 g/ha (Yellow nutsedge [20]) | other results |
| --- | --- | --- | --- | --- | --- | --- | --- | --- | --- | --- | --- | --- | --- | --- | --- | --- | --- | --- | --- | --- | --- |
| C#CCN1C(=O)COc2cc(F)c(-c3nn(C)c(C(F)(F)F)c3Cl)cc21 [Compound 446, 6-(4-Chloro-1-methyl-5-(trifluoromethyl)-1H-pyrazol-3-yl)-7-fluoro-4-(2-propynyl)-2H-1,4-benzoxazin-3-(4H)-one] | 100% | 80% | 100% | 90% | 100% | 100% | 80% | 90% | 100% | 60% | 100% | 100% | 100% | 100% | 100% | 100% | 90% | 100% | 100% | 40% | control of resistant broadleaf weeds [21]: outstanding control |
| COC(=O)C(C)OC(=O)c1cc(-c2nn(C)c(C(F)(F)F)c2Cl)c(F)cc1Cl (stereo not drawn) [Compound 137, 2-Chloro-5-(4-chloro-1-methyl-5-(trifluoromethyl)-1H-pyrazol-3-yl)-4-fluorobenzoic acid, 2-methoxy-1-methyl-2-oxoethyl ester] | 70% | 70% | 100% | 80% | 100% | 100% | 50% | 100% | 90% | 20% | 100% | 100% | 100% | 100% | 100% | 100% | 100% | 100% | 100% | 20% | control of resistant broadleaf weeds [21]: outstanding control |
| Cn1nc(-c2cc(N3CCOCC3)c(Cl)cc2F)c(Cl)c1C(F)(F)F [Compound 99] |  |  |  |  |  |  |  |  |  |  |  |  |  |  |  |  |  |  |  |  | inhibition at 11210 g/ha (Annual bluegrass [1]): 80%; inhibition at 11210 g/ha (Barnyardgrass [2]): 90%; inhibition at 11210 g/ha (Cocklebur [3]): 80%; inhibition at 11210 g/ha (Downy Brome [4]): 100%; inhibition at 11210 g/ha (Indian Mustard [5]): 100%; inhibition at 11210 g/ha (Morningglory [6]): 90%; inhibition at 11210 g/ha (Seedling johnsongrass [7]): 90%; inhibition at 11210 g/ha (Velvetleaf [8]): 100%; inhibition at 11210 g/ha (Wild buckwheat [9]): 100%; inhibition at 11210 g/ha (Yellow nutsedge [10]): 30%; inhibition at 11210 g/ha (Annual bluegrass [11]): 100%; inhibition at 11210 g/ha (Barnyardgrass [12]): 100%; inhibition at 11210 g/ha (Cocklebur [13]): 90%; inhibition at 11210 g/ha (Downy Brome [14]): 90%; inhibition at 11210 g/ha (Indian Mustard [15]): 100%; inhibition at 11210 g/ha (Morningglory [16]): 100%; inhibition at 11210 g/ha (Seedling johnsongrass [17]): 100%; inhibition at 11210 g/ha (Velvetleaf [18]): 100%; inhibition at 11210 g/ha (Wild buckwheat [19]): 100%; inhibition at 11210 g/ha (Yellow nutsedge [20]): 10% |
| Cn1nc(-c2cc(/C=C/C(=O)O)c(Cl)cc2F)c(Cl)c1C(F)(F)F [Compound 351] | 0% | 0% | 80% | 0% | 100% | 80% | 0% | 100% | 100% | 0% | 30% | 70% | 100% | 40% | 100% | 100% | 60% | 100% | 100% | 30% |  |
| COc1cc(-c2c(Cl)c(C(F)(F)F)nn2C)c(F)cc1Cl [Compound 74] | 10% | 20% | 0% | 20% | 90% | 50% | 60% | 90% | 100% | 0% | 0% | 10% | 20% | 10% | 40% | 20% | 10% | 40% | 90% | 10% |  |
| Cn1nc(-c2cc(CC(=O)NCCCl)c(Cl)cc2F)c(Cl)c1C(F)(F)F [Compound 113] |  |  |  |  |  |  |  |  |  |  |  |  |  |  |  |  |  |  |  |  | inhibition at 11210 g/ha (Annual bluegrass [1]): 10%; inhibition at 11210 g/ha (Barnyardgrass [2]): 80%; inhibition at 11210 g/ha (Cocklebur [3]): 0%; inhibition at 11210 g/ha (Downy Brome [4]): 0%; inhibition at 11210 g/ha (Indian Mustard [5]): 80%; inhibition at 11210 g/ha (Morningglory [6]): 30%; inhibition at 11210 g/ha (Seedling johnsongrass [7]): 30%; inhibition at 11210 g/ha (Velvetleaf [8]): 80%; inhibition at 11210 g/ha (Wild buckwheat [9]): 40%; inhibition at 11210 g/ha (Yellow nutsedge [10]): 0%; inhibition at 11210 g/ha (Annual bluegrass [11]): 0%; inhibition at 11210 g/ha (Barnyardgrass [12]): 0%; inhibition at 11210 g/ha (Cocklebur [13]): 20%; inhibition at 11210 g/ha (Downy Brome [14]): 0%; inhibition at 11210 g/ha (Indian Mustard [15]): 0%; inhibition at 11210 g/ha (Morningglory [16]): 30%; inhibition at 11210 g/ha (Seedling johnsongrass [17]): 0%; inhibition at 11210 g/ha (Velvetleaf [18]): 50%; inhibition at 11210 g/ha (Wild buckwheat [19]): 20%; inhibition at 11210 g/ha (Yellow nutsedge [20]): 0% |
| Cn1nc(-c2cc([N+](=O)[O-])c(Cl)cc2Cl)c(Cl)c1C(F)(F)F [Compound 86] |  |  |  |  |  |  |  |  |  |  |  |  |  |  |  |  |  |  |  |  | inhibition at 11210 g/ha (Annual bluegrass [1]): 0%; inhibition at 11210 g/ha (Barnyardgrass [2]): 0%; inhibition at 11210 g/ha (Cocklebur [3]): 10%; inhibition at 11210 g/ha (Downy Brome [4]): 0%; inhibition at 11210 g/ha (Indian Mustard [5]): 30%; inhibition at 11210 g/ha (Morningglory [6]): 20%; inhibition at 11210 g/ha (Seedling johnsongrass [7]): 0%; inhibition at 11210 g/ha (Velvetleaf [8]): 90%; inhibition at 11210 g/ha (Wild buckwheat [9]): 100%; inhibition at 11210 g/ha (Yellow nutsedge [10]): 0%; inhibition at 11210 g/ha (Annual bluegrass [11]): 30%; inhibition at 11210 g/ha (Barnyardgrass [12]): 80%; inhibition at 11210 g/ha (Cocklebur [13]): 70%; inhibition at 11210 g/ha (Downy Brome [14]): 0%; inhibition at 11210 g/ha (Indian Mustard [15]): 60%; inhibition at 11210 g/ha (Morningglory [16]): 100%; inhibition at 11210 g/ha (Seedling johnsongrass [17]): 80%; inhibition at 11210 g/ha (Velvetleaf [18]): 100%; inhibition at 11210 g/ha (Wild buckwheat [19]): 100%; inhibition at 11210 g/ha (Yellow nutsedge [20]): 10% |
| Cn1nc(-c2cc(C(=O)OC3CCCCC3)c(Cl)cc2F)c(Cl)c1C(F)(F)F [Compound 134] | 50% | 10% | 30% | 70% | 60% | 20% | 40% | 70% | 90% | 0% | 100% | 100% | 100% | 100% | 100% | 100% | 100% | 100% | 100% | 20% |  |

From patent publication US5530126A, “Process for the preparation of substituted 6-(pyrazol-3yl)-1,4-benzoxazin-3-ones” (Monsanto Company, priority 1994, dated 1996)
